# Reference: patent US20230097753A1, “ALPHA-HYDROXYLATED FATTY-ACID METABOLITES, MEDICAL USES AND USE AS BIOMARKERS” (UNIVERSITAT DE LES ILLES BALEARS, priority 2020, published 2023)
# Key:
# HEK293T cells = assay: Metabolic conversion and uptake of 2-hydroxylated fatty acids in HEK293T cell cultures; assay type: in vitro ADME, human
# Method: To describe the metabolic conversion of DHA-H to HPA(C21:5 ω-3), as well as the conversion of LA-H to HDA (C17:2 ω-6), ALA-H to HTA ω-3 (C17:3 ω-3), GLA-H to HTA ω-6 (C17:3 ω-6), ARA-H to NTA (C19:4 ω-6), EPA-H to NPA (C19:5 ω-3), HEK293T (Human Embryonic Kidney Cells 293T) cell cultures were employed, which is an embryonic, non-tumoral cell line, widely used in human metabolism studies under physiological conditions.
# HEK293T cells were cultured in Dulbecco's Modified Eagle's Medium (DMEM; Dubelcco's Modified Eagle's Medium, Biowest, France), supplemented with 10% FBS (Fetal Bovine Serum; Gibco, Thermo-Fisher), 2 mM L-Gln, 25 mM D(+)-glucose, 1 mM sodium pyruvate, and penicillin/streptomycin. Mouse neuroblastoma N2a cells were maintained in a 1:1 (v:v) mixture of DMEM and Opti-Mem (Gibco, Thermo-Fisher), supplemented with 5% FBS and penicillin/streptomycin. Both cell lines were incubated in an atmosphere of 5% CO2 at 37° C.
# HEK293T cells were incubated with DHA-H and DHA at 10, 30 and 100 μM for 24 hours, and at 30 μM for 6, 48 and 72 hours. These cells were also incubated with LA-H, ALA-H, GLA-H, ARA-H and EPA-H at 100 μM for 24 hours. HEK293T cells were also incubated with oxythiamine in the presence of DHA-H under the same conditions, at final oxythiamine concentrations of 1 and 10 mM. The HEK293T cells were separated from the plates by pipettes with cold phosphate buffer saline solution (PBS). Cells were recovered by centrifugation (1000 xg, 10 min at 4° C.) and washed twice with cold PBS before being frozen at −80° C. To analyze DHA-H and DHA levels in the cell culture medium, 90 mm diameter plates were filled with 11 mL of complete cell culture medium containing 30 μM DHA-H or DHA in the presence or absence of attached HEK293T cells (5.10^5 cells/plate). The plates were incubated as described above and 1 ml aliquots of the plates were collected at 0, 6, 24, 48 and 72 hours. Aliquots of the cell culture medium were immediately centrifuged at 1000×g for 10 min at 4° C. to remove any cell suspension and the cell-free aliquots were stored at -20° C.
# The cell lysates were subjected to ultrasound pulses (4 cycles, 10 s/cycle, 10 W) before lipid extraction. For brain analysis, the tissue of each animal was homogenized in cold PBS at 1:10 (p:v) in the presence of protease inhibitors (Roche), using a blade homogenizer (Polytron PT3100). Homogenates were ultrasounded, aliquots were made and stored at −80 ° C. Only one aliquot of each sample, containing about 8 mg protein/aliquot, was subjected to lipid extraction. Protein content before lipid extraction was determined by a modified Lowry method (Bio-rad DC Protein Assay).
# Margaric acid (C17:0) was added to the samples subjected to lipid extraction as an internal standard and the lipids were extracted with chloroform:methanol (Eggers and Schwudke, 2016). Briefly, 0.75 volumes of the aqueous phase (which already contained the biological sample) were mixed with 2 volumes of chloroform and 1 volume of methanol. This mixture was vortexed for 1 minute and centrifuged at 1000×g for 10 minutes. The lower organic phase was collected and washed with 1 ml of PBS:methanol (1:1,v:v), and the resulting organic phase was dried under argon flow. The film containing the extracted lipids was transmethylated by incubation of the lipid mixture for 90 minutes at 100° C. in 3 ml of methanol:acetyl chloride (10:1, v:v), under an argon atmosphere (Christie, 1993). The resulting fatty acid methyl esters (FAMEs) were extracted with hexane, adding 3 ml of H2O and 1 ml of hexane to the transmethylation reaction, and vortexing the mixture thoroughly. After centrifugation at room temperature (1000×g for 10 min), the upper phase containing the FAMEs was collected and the remaining volume was washed twice with 1 ml of hexane.
# MIA-PaCa 2 = assay: IC50 in tumor cell cultures (cell survival, XTT / trypan blue); assay type: cell-based; conditions: Homo sapiens; MIA-PaCa 2 pancreatic cancer cell line
# Method: (§1) Cell survival was analyzed in a Barker chamber using trypan blue vital exclusion staining (Scharlab) or by cell proliferation kit II (Roche). Briefly, the cells were seeded in 96-well plates at a density of 3 x 10^3 cells per well 24 h prior to treatment, and then cultured in the presence or absence of compounds of interest at the concentrations and for the times indicated in the figures. After different times, plaque viable cells were determined by the addition of XTT according to the manufacturers instructions. Cells were incubated at 37° C. in 5% CO2 until a constant color was developed and absorbance was recorded at 495 nm using a microplate reader with a reference wavelength of 650 nm (FLUOstar Omega, BMG LABTECH, Germany).
# (§2) The anti-tumor activity of the different metabolites described in FIGS. 8 and 9 was determined by direct treatment with these molecules (HDA or C17:2 ω-6, HTA ω-3 or C17:3 ω-3, HTA ω-6 or C17:3 ω-6, NTA or C19:4 ω-6, NPA or C19:5 ω-3, and HPA or C21:5 ω-3) in tumor cell cultures, on which the IC50 value for each of these compounds was determined (Inhibitory Concentration 50: concentration of study compound that induces death of 50% of the tumor cell population).
# A549 = assay: as above; assay type: cell-based; conditions: A549 human lung adenocarcinoma cell line
# Method: as §1, §2
SMILES,"Levels in the culture medium in the absence of cell culture (HEK293T cells; 30 μM, up to 72 h, no cells)","Intracellular HPA levels compared to DHA-H levels (HEK293T cells; HEK293T under DHA-H, from 24 hours of incubation and 30 μM)","Formation of the metabolite from its 2-hydroxylated prodrug in the presence of oxythiamine (HEK293T cells; HEK293T, prodrug 100 μM, 24 h, 10 mM oxythiamine)",IC50 (MIA-PaCa 2) [µM],IC50 (A549) [µM]
"CCC=CCC=CCC=CCC=CCC=CCC=CCC(O)C(=O)O (centres unmarked) [DHA-H, 2-hydroxy-drocosahexaenoic acid]",remained constant over time,–,–,–,–
"CC/C=C\C/C=C\C/C=C\C/C=C\C/C=C\CCCCC(=O)O [HPA, (6Z,9Z,12Z,15Z,18Z)-heneicosa-6,9,12,15,18-pentaenoic acid]",–,significantly higher than those of the prodrug,inhibited,58 ± 17,228 ± 3
